# Measured values reported in US6756362B2, “Methods and compositions based on inhibition of cell invasion and fibrosis by anionic polymers” (priority 1991, dated 2004).
# How the values were obtained:
# [1] = tested on: DRG explants, neuronal and non-neuronal cell migration; test: Explant outgrowth assay; assay type: cell-based, chick
# Experimental: Primary Explant Cultures. Dorsal root ganglia (DRGs) were obtained from E8-E9 chick embryos. The dissection was carried out in CMF-HBSS. The spinal cord was exposed and DRGs were removed and cleaned from surrounding connective tissue. DRGs were plated in DMEM/F12, 10% fetal calf serum containing 50 ng/ml nerve growth factor (NGF). The DRGs were seeded on laminin (LN, Gibco Laboratories) or poly-L-lysine (PLL, Sigma) coated dishes.
# The relative outgrowth, compared to outgrowth of untreated controls, was rated as follows: 1: 0-19% of control; 2: 20-39% of control; 3: 40-59% of control; 4: 60-79% of control; 5: 80-100% of control.
# The effect of heparin and dextran sulfate on cell migration from explant cultures of chick DRGs was tested. DRGs were plated in culture dishes precoated with a substratum of either PLL or LN and grown in culture medium containing different concentrations of heparin, dextran sulfate or dextran solutions. In the absence of a test compound, within 24-48 hours a halo of neuritic outgrowth and migrating non-neuronal cells, i.e., fibroblasts and Schwann cells, was evident around the ganglia (FIG. 6A). The size of the cellular halo migrating from the DRG explant was reduced when the explant was grown in the presence of 0.4 mg/ml heparin (FIG. 6B). […] In contrast, 0.4 mg/ml dextran had no effect (FIG. 6D). The size of the cellular halo emanating from DRGs grown in the presence of test compounds was evaluated relative to untreated control and rated as described in Section 8.1.3, supra (Table 9).
# [2] = tested on: rat meningeal fibroblasts (RMF); test: Colorimetric cell adhesion assay, RMF; assay type: cell-based; details: RMF on PLL; 4 hr incubation; FIG. 7
# Experimental: (§1) Primary Cell Cultures. Primary cultures of rat meningeal fibroblasts (RMF) were obtained from P-3 rat pups. The tissue was removed from the animals and transferred to Leibovitz's L-15 with L-glutamine medium. The tissue was then cut into small pieces with a scalpel blade, enzymatically dissociated with 0.25% trypsin in Ca^2+/Mg^2+ free Hank's balanced salt solution (CMF-HBSS, Gibco Laboratories) for 20 minutes at 37° C., and mechanically triturated. The cells were rinsed with DMEM plus 10% FCS, concentrated by centrifugation and subsequently diluted in DMEM with 10% FCS for plating at 5.0×10^6 cells per 75 cm^2 flask. Adult rat sciatic nerve fibroblasts (RSF) were obtained by explantation of 1 mm sections of adult rat sciatic nerve.
# Microtiter plates were precoated with poly-L-lysine and blocked with 1% BSA in DMEM for 20 min prior to addition of cells. The cells were plated on the precoated 96-well plates and test compounds were added to the culture medium. Following 4-24 hr incubation at 36° C., 5% C02, in a humidified incubator, the tetrazolium salt MTT (3-(4,5-dimethylthazol-2-yl)-2,5-diphenyl tetrazolium bromide) was added. The cultures were incubated for 2 hr to allow mitochondrial succinate dehydrogenase, found in viable cells, to […] the MTT to its formazan blue reaction product. The media was aspirated and the wells were rinsed to remove all detached cells. The formazan blue reaction product in attached cells was solubilized with 0.08 N HCl in isopropanol, and the plates were read in a microtiter plate reader (Dynatech MR4000) at 570 nm with a 630 nm reference filter. The resulting optical density readings are directly related to the number of viable cells in the well (Mosmann, T., 1983, J. Immunol. Methods 65:55-63). The samples were run in 3-6 replicates per point and the SD was less than 5%.
# The adhesion of fibroblasts to PLL-coated microtiter plates in the presence of test compounds in the culture medium was evaluated using an MTT assay as described in Section 8.1.5., supra, and the number of attached cells was expressed as percent of control. The effect of 4 hr incubation in the presence of heparin, pentosan polysulfate, dextran sulfate, and dextran on adhesion of rat meningeal fibroplasts (RMF) and 3T3 cells to PLL is shown in FIG. 7.
# [3] = tested on: rat meningeal fibroblasts (RMF); test: Stripe assay, RMF; assay type: cell-based; parameters: key: Bands that were completely inhibitory to cell adhesion, migration and/or invasion were evaluated as (−); those allowing limited cell adhesion, migration and/or invasion (+/−); those permissive to cell adhesion, migration and/or invasion as (+); details: for DS-PG Effect on Adhesion, Migration and Invasion: 2 days following plating
# Experimental: as §1
# The stripe assay was performed essentially as described by Snow et al. (1990, Exp. Neural. 309:111-130). Tissue culture Petri dishes (Falcon, 60 mm) were precoated with 0.5 ml of a mixture of 5 cm^2 section nitrocellulose (Schleicher & Schuell, Type BA 85) dissolved in 6 ml methanol, and air dried in a laminar flow hood. Cellulose filter paper (Whatman #1) was cut into 12×0.35 mm strips with a McIlwain tissue chopper (The Mickle Laboratory Engineering Co., LTD). A strip of filter paper was soaked in 20 μl of a solution of DS-PG or KS/CS-PG and LN at given concentration, blotted onto the nitrocellulose-coated dish for 30 sec. and removed. The test solution was allowed to air dry. This process was repeated several times creating clearly defined, equally spaced parallel bands of uniform width on the plates. A thin layer of 0.1 or 1 mg/ml LN was then spread evenly across the bands with a bent glass Pasteur pipet, and covered with culture medium (FIG. 1).
# Plates were seeded with cell suspensions of 2.0×10^5 cells/ml or 4-10 DRG explants. The cultures were assessed for degree of adhesion, migration and/or invasion of the DS-PG or KS/CS-PG bands over a period of up to 7 days using a Leitz Fluovert microscope.
# Bands that were completely inhibitory to cell adhesion, migration and/or invasion were evaluated as (−), those allowing limited cell adhesion, migration and/or invasion (+/−), and those permissive to cell adhesion, migration and/or invasion as (+). cell adhesion was defined as the initial interaction between the cell surface and the substratum which results in cell attachment and spreading. Cell migration was operationally defined as cell movement within the same substratum, and cell invasion was operationally defined as cell movement from one type of substratum to another type of substratum.
# [4] = 0.5 μg/ml in culture medium, PLL substratum
# [5] = 1 μg/ml in culture medium, PLL substratum
# [6] = 1.25 μg/ml in culture medium, LN substratum
# [7] = 1.25 μg/ml in culture medium, PLL substratum
# [8] = 2 μg/ml in culture medium, LN substratum
# [9] = 2 μg/ml in culture medium, PLL substratum
# [10] = 10 μg/ml in culture medium, LN substratum
# [11] = 10 μg/ml in culture medium, PLL substratum
# [12] = 50 μg/ml in culture medium, LN substratum
# [13] = 50 μg/ml in culture medium, PLL substratum
# [14] = 200 μg/ml in culture medium, LN substratum
# [15] = 200 μg/ml in culture medium, PLL substratum
# [16] = 400 μg/ml in culture medium, LN substratum
# [17] = 400 μg/ml in culture medium, PLL substratum
Substance,"Cellular Migration from DRG Explants, rating relative to untreated control [1, 4]","Cellular Migration from DRG Explants, rating relative to untreated control [1, 5]","Cellular Migration from DRG Explants, rating relative to untreated control [1, 6]","Cellular Migration from DRG Explants, rating relative to untreated control [1, 7]","Cellular Migration from DRG Explants, rating relative to untreated control [1, 8]","Cellular Migration from DRG Explants, rating relative to untreated control [1, 9]","Cellular Migration from DRG Explants, rating relative to untreated control [1, 10]","Cellular Migration from DRG Explants, rating relative to untreated control [1, 11]","Cellular Migration from DRG Explants, rating relative to untreated control [1, 12]","Cellular Migration from DRG Explants, rating relative to untreated control [1, 13]","Cellular Migration from DRG Explants, rating relative to untreated control [1, 14]","Cellular Migration from DRG Explants, rating relative to untreated control [1, 15]","Cellular Migration from DRG Explants, rating relative to untreated control [1, 16]","Cellular Migration from DRG Explants, rating relative to untreated control [1, 17]",number of attached cells compared to untreated controls [2],other results
dextran sulfate,5 (5 = 80-100% of control),3 (3 = 40-59%),5 (5 = 80-100% of control),2 (2 = 20-39%),3 (3 = 40-59%),1 (1 = 0-19%),1 (1 = 0-19%),1 (1 = 0-19%),1 (1 = 0-19%),1 (1 = 0-19%),1 (1 = 0-19%),1 (1 = 0-19%),1 (1 = 0-19%),1 (1 = 0-19%),decreased,
keratan sulfate/chrondroitin sulfate-proteoglycans [KS/CS-PG],,,,,,,,,,,,,,,,Effect of KS/CS-PG on Cell Migration ([3]; 0.12 mg/ml KS/CS-PG + LN stripes): +; Effect of KS/CS-PG on Cell Migration ([3]; 0.25 mg/ml KS/CS-PG + LN stripes): +/−; Effect of KS/CS-PG on Cell Migration ([3]; 0.5 mg/ml KS/CS-PG + LN stripes): +/−; Effect of KS/CS-PG on Cell Migration ([3]; 1.0 mg/ml KS/CS-PG + LN stripes): +/−; Effect of KS/CS-PG on Cell Migration ([3]; 2.7 mg/ml KS/CS-PG + LN stripes): −
dextran [reference compound],,,,,5 (5 = 80-100% of control),,5 (5 = 80-100% of control),,5 (5 = 80-100% of control),5 (5 = 80-100% of control),5 (5 = 80-100% of control),5 (5 = 80-100% of control),5 (5 = 80-100% of control),5 (5 = 80-100% of control),slight increase,
Dermatan sulfate proteoglycan [DS-PG],,,,,,,,,,,,,,,,"DS-PG Effect on Adhesion, Migration and Invasion ([3]; 0.1 mg/ml DS-PG + 20 μg/ml LN stripes): +; DS-PG Effect on Adhesion, Migration and Invasion ([3]; 0.2 mg/ml DS-PG + 20 μg/ml LN stripes): +/−; DS-PG Effect on Adhesion, Migration and Invasion ([3]; 0.4 mg/ml DS-PG + 20 μg/ml LN stripes): −; DS-PG Effect on Adhesion, Migration and Invasion ([3]; 0.8 mg/ml DS-PG + 20 μg/ml LN stripes): −"
Heparin,5 (5 = 80-100% of control),4 (4 = 60-79%),5 (5 = 80-100% of control),2 (2 = 20-39%),,2 (2 = 20-39%),5 (5 = 80-100% of control),2 (2 = 20-39%),5 (5 = 80-100% of control),2 (2 = 20-39%),5 (5 = 80-100% of control),2 (2 = 20-39%),5 (5 = 80-100% of control),1 (1 = 0-19%),decreased,
